Results taken from patent US8624034B2, “Fluoro-pyridinone derivatives useful as antibacterial agents” (Pfizer Inc., priority 2011, dated 2014).
In brackets after ≈: the same amount, converted by molar mass. Several values for one entry are separate records, joined by “and”; a condition that tells them apart may be missing. Equal entries are not always repeated.

Tests used:
[1] = system: Acinetobacter baumannii/haemolyticus, multidrug-resistant clinical isolate (AB-3167); assay: MIC determination, AB-3167; assay type: cell-based; settings: Table 3, lower of duplicate values
Summary of the method: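 Broth dilution MIC per CLSI M7-A8, 2-fold drug series, overnight incubation, lowest concentration visibly inhibiting growth against drug-free control. Run in duplicate, lower value reported; duplicates differing >2-fold repeated; QC strains and reference compounds required in range.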

[2] = system: PA:UC12120; assay: MIC determination, PA:UC12120 (Table 3); assay type: cell-based, Pseudomonas aeruginosa; settings: for MIC: Pseudomonas aeruginosa, UC12120, Table 3, lower of duplicate values
Summary of the method: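 CLSI broth dilution MIC with 2-fold concentration steps, overnight incubation; MIC is the lowest concentration visibly inhibiting growth versus drug-free control. Run in duplicate, lower value reported when within 2-fold; control organisms and reference compounds required within defined ranges.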

[3] = target: T1, Pseudomonas aeruginosa LpxC enzyme (Pseudomonas aeruginosa, UniProt P47205); assay: IC50 assay, LpxC enzyme from P. aeruginosa (PA LpxC enzyme IC50); assay type: biochemical; settings: Table 3; LpxC enzyme 0.1 nM, 25° C., 1 hour; read-out: PA:IC50
T1 construct: made in house; host or cells: E. coli
T1 sequence (P47205 1-303): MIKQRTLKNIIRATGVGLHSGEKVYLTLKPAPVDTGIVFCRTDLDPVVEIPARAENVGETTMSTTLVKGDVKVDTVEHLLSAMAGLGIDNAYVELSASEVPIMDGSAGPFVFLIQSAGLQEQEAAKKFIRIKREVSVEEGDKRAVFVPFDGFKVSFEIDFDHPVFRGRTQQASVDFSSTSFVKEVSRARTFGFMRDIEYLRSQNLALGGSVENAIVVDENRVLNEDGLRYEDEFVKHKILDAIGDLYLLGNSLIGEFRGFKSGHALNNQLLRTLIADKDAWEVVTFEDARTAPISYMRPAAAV
Summary of the method: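 The LpxC reaction ran 1 hour and was stopped with HCl. Substrate-to-product conversion was measured by RapidFire mass spectrometry, and IC50 values were calculated from percent conversion relative to a no-enzyme control.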

[4] = system: Escherichia coli EC-1: VOGEL, mouse virulent; assay: MIC determination, EC-1; assay type: cell-based; settings: for MIC: Escherichia coli, read-out: EC-1 (MIC), Table 3, lower of duplicate values
Summary of the method: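 MIC against mouse-virulent E. coli EC-1 (VOGEL) was determined by CLSI M7-A8 broth dilution with 2-fold drug increments and overnight incubation. The MIC is the lowest concentration with no visible growth versus drug-free control. Tests were run in duplicate and the lower value reported if within 2-fold, with QC organisms and reference drugs in each run.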

[5] = Table 3, lower of duplicate values

With `CC(CCn1cc(F)c(-c2ccccc2F)cc1=O)(C(=O)NO)S(C)(=O)=O` (stereo not shown) [Example 103, 4-[5-fluoro-4-(2-fluorophenyl)-2-oxopyridin-1(2H)-yl]-N-hydroxy-2-methyl-2-(methylsulfonyl)butanamide] the MIC [1] was greater than 64 µg/mL, the MIC [2] was 0.5 µg/mL (≈ 1.25 µM) and the IC50 [3] was 1.4 nM. It also gave an MIC [4] of 4 µg/mL (≈ 9.99 µM).

For `CC(CCn1cc(F)c(-c2cncc(F)c2)cc1=O)(C(=O)NO)S(C)(=O)=O` (stereo not shown) [Example 55, 4-(5,5′-difluoro-2′-oxo-3,4′-bipyridin-1′(2′H)-yl)-N-hydroxy-2-methyl-2-(methylsulfonyl)butanamide], the MIC [1] was greater than 64 µg/mL, the MIC [2] was 64 µg/mL (≈ 159 µM) and the IC50 [3] was 66.8 nM. The MIC [4] was greater than 64 µg/mL.

For `COc1c(F)cc(-c2cc(=O)n(CCC(C)(C(=O)NO)S(C)(=O)=O)cc2F)cc1F` (stereo not shown) [Example 62, 4-[4-(3,5-difluoro-4-methoxyphenyl)-5-fluoro-2-oxopyridin-1(2H)-yl]-N-hydroxy-2-methyl-2-(methylsulfonyl)butanamide], the MIC [1] was greater than 64 µg/mL, the MIC [2] was 2 µg/mL (≈ 4.46 µM) and the “PA:UC12120 (MIC)” value [2, 5] was 1 µg/mL. The IC50 [3] was 2 nM and 3.1 nM, the MIC [4] was 4 µg/mL (≈ 8.92 µM) and the “EC-1 (MIC)” value [4, 5] was 8 µg/mL.

`Cn1cnc2cc(-c3cc(=O)n(CCC(C)(C(=O)NO)S(C)(=O)=O)cc3F)cnc21` (stereo not shown) [Example 71, 4-[5-fluoro-4-(3-methyl-3H-imidazo[4,5-b]pyridin-6-yl)-2-oxopyridin-1(2H)-yl]-N-hydroxy-2-methyl-2-(methylsulfonyl)butanamide] gave an MIC [1] greater than 64 µg/mL, an MIC [2] greater than 64 µg/mL and an IC50 [3] greater than 100 nM. For the same compound, the MIC [4] was greater than 64 µg/mL.

`CN1Cc2ccc(-c3cc(=O)n(CCC(C)(C(=O)NO)S(C)(=O)=O)cc3F)cc2C1=O` (stereo not shown) [Example 57, 4-[5-fluoro-4-(2-methyl-3-oxo-2,3-dihydro-1H-isoindol-5-yl)-2-oxopyridin-1(2H)-yl]-N-hydroxy-2-methyl-2-(methylsulfonyl)butanamide] showed an MIC [1] greater than 64 µg/mL, an MIC [2] greater than 64 µg/mL and an IC50 [3] of 21 nM. The MIC [4] was greater than 64 µg/mL.

Compound `CC(CCn1cc(F)c(-c2ccc(Cl)cc2F)cc1=O)(C(=O)NO)S(C)(=O)=O` (stereo not shown) [Example 66, 4-[4-(4-chloro-2-fluorophenyl)-5-fluoro-2-oxopyridin-1(2H)-yl]-N-hydroxy-2-methyl-2-(methylsulfonyl)butanamide] has an MIC [1] of 64 µg/mL (≈ 147 µM), an MIC [2] of 0.5 µg/mL (≈ 1.15 µM) and an IC50 [3] of 0.8 nM. For the same compound, the MIC [4] was 0.5 µg/mL (≈ 1.15 µM).

In the case of `CC(CCn1cc(F)c(-c2ccc(F)cc2F)cc1=O)(C(=O)NO)S(C)(=O)=O` (stereo not shown) [Example 97, 4-[4-(2,4-difluorophenyl)-5-fluoro-2-oxopyridin-1(2H)-yl]-N-hydroxy-2-methyl-2-(methylsulfonyl)butanamide], the MIC [1] is reported as greater than 64 µg/mL, the MIC [2] is reported as 1 µg/mL (≈ 2.39 µM) and the IC50 [3] is reported as 1.2 nM. For the same compound, the MIC [4] was 4 µg/mL (≈ 9.56 µM).

`COc1ccc(-c2cc(=O)n(CCC(C)(C(=O)NO)S(C)(=O)=O)cc2F)cn1` (stereo not shown) [Example 89, 4-(5′-fluoro-6-methoxy-2′-oxo-3,4′-bipyridin-1′(2′H)-yl)-N-hydroxy-2-methyl-2-(methylsulfonyl)butanamide] showed an MIC [1] greater than 64 µg/mL, an MIC [2] of 2 µg/mL (≈ 4.84 µM) and an IC50 [3] of 3.1 nM. The MIC [4] was 8 µg/mL (≈ 19.4 µM).

With `CC(C)Oc1ncccc1-c1cc(=O)n(CCC(C)(C(=O)NO)S(C)(=O)=O)cc1F` (stereo not shown) [Example 104, 4-(5′-fluoro-2-isopropoxy-2′-oxo-3,4′-bipyridin-1′(2′H)-yl)-N-hydroxy-2-methyl-2-(methylsulfonyl)butanamide] the MIC [1] was 32 µg/mL (≈ 72.5 µM), the MIC [2] was 32 µg/mL (≈ 72.5 µM) and the IC50 [3] was greater than 100 nM. The MIC [4] was 8 µg/mL (≈ 18.1 µM).

`CC(CCn1cc(F)c(-c2cnc3ccoc3c2)cc1=O)(C(=O)NO)S(C)(=O)=O` (stereo not shown) [Example 72, 4-(5-fluoro-4-furo[3,2-b]pyridin-6-yl-2-oxopyridin-1(2H)-yl)-N-hydroxy-2-methyl-2-(methylsulfonyl)butanamide] showed an MIC [1] greater than 64 µg/mL, an MIC [2] of 32 µg/mL (≈ 75.6 µM) and an IC50 [3] of 34.8 nM. The MIC [4] was 64 µg/mL (≈ 151 µM).

`CC(=O)Nc1cccc(-c2cc(=O)n(CCC(C)(C(=O)NO)S(C)(=O)=O)cc2F)c1` (stereo not shown) [Example 61, 4-[4-(3-acetamidophenyl)-5-fluoro-2-oxopyridin-1(2H)-yl]-N-hydroxy-2-methyl-2-(methylsulfonyl)butanamide] showed an MIC [1] greater than 64 µg/mL, an MIC [2] greater than 64 µg/mL and an IC50 [3] greater than 100 nM. The MIC [4] was greater than 64 µg/mL.
